The subject of one assay is E. coli UFR39. The assay can be described thus: MIC of compound alone, broth microdilution. As to conditions: Escherichia coli, UFR39, read-out: MIC CAZ alone. It counts as cell-based. The method in brief:
(§1)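 Growth inhibition was scored by eye after 16-20 h at 35° C (room air), with bacteria from log phase seeded at 5×10^5 cfu/mL final in cation-adjusted Mueller-Hinton medium.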

The test system of assay [1] is K. pneumoniae BAA-1898. The assay can be described thus: MIC of compound alone, broth microdilution. Type of assay: cell-based. The conditions noted are these: strain BAA-1898; compound alone. The method, boiled down: as §1
A general note: Dilution methods test growth across graded concentrations, often in twofold steps.

For assay [2], the system named is E. coli 190317. The assay can be described thus: MIC of compound alone, broth microdilution. Type of assay: cell-based. The conditions noted are these: strain 190317; compound alone. The method in brief:
as §1

The test system of assay [3] is K. pneumoniae 6299. Kind of assay: MIC of compound alone, broth microdilution. Type of assay: cell-based. The conditions noted are these: strain 6299; compound alone. The method in brief: as §1
The subject of assay [4] is E. cloacae P99. Kind of assay: MIC of compound alone, broth microdilution. The conditions noted are these: strain P99; compound alone. It counts as cell-based. The method in brief: as §1
The test system of assay [5] is P. aeruginosa CIP107051. The assay can be described thus: MIC of compound alone, broth microdilution. Type of assay: cell-based. The conditions noted are these: strain CIP107051; compound alone. The method in brief:
as §1

The target in another assay is OXA-11 (Pseudomonas aeruginosa, UniProt Q06778). As to conditions: read-out: IC50 β-lactamase OXA-11; class (D); nitrocefin 200 μM, 30-min pre-incubation, enzyme 1.2 nM.
Another assay concerns the target KPC-2 (Klebsiella pneumoniae, UniProt Q9F663). As to conditions: read-out: IC50 β-lactamase KPC-2; class (A); nitrocefin 200 μM, 30-min pre-incubation, enzyme 1 nM.
Another assay deals with OXA-48 (Klebsiella pneumoniae, UniProt Q6XEC0). The conditions noted are these: read-out: IC50 β-lactamase OXA-48; class (D); nitrocefin 200 μM, 30-min pre-incubation, enzyme 0.3 nM.
A further assay deals with SHV-1 (Klebsiella pneumoniae, UniProt P0AD64). The conditions noted are these: read-out: IC50 β-lactamase SHV-1; class (A); nitrocefin 200 μM, 30-min pre-incubation, enzyme 0.075 nM.
The target of a further assay is AmpC (P99) (Enterobacter cloacae, UniProt P05364). As to conditions: read-out: IC50 β-lactamase AmpC (P99); class (C); nitrocefin 200 μM, 30-min pre-incubation, enzyme 0.2 nM.
The target of another assay is OXA-15 (Pseudomonas aeruginosa, UniProt Q51574). The conditions noted are these: read-out: IC50 β-lactamase OXA-15; class (D); nitrocefin 200 μM, 30-min pre-incubation, enzyme 0.4 nM.
The target in the next assay is OXA-1 (Escherichia coli, UniProt P13661). The conditions noted are these: read-out: IC50 β-lactamase OXA-1; class (D); nitrocefin 200 μM, 30-min pre-incubation, enzyme 0.2 nM.
The next assay addresses CTX-M-15 (Escherichia coli, UniProt Q9EXV5). The conditions noted are these: read-out: IC50 β-lactamase CTX-M-15; class (A); nitrocefin 200 μM, 30-min pre-incubation, enzyme 0.4 nM.
The target in the next assay is TEM-1 (Escherichia coli, UniProt P62593). The conditions noted are these: read-out: IC50 β-lactamase TEM-1; class (A); nitrocefin 200 μM, 30-min pre-incubation, enzyme 0.1 nM.
Assay [6] concerns K. pneumoniae BAA-1898. The assay can be described thus: MIC of ceftazidime (CAZ) at fixed concentration of compound (synergy), broth microdilution. Type of assay: cell-based. The conditions noted are these: strain BAA-1898; MIC of CAZ, compound fixed at 4 μg/mL. The method in brief: as §1
Assay [7] relates to E. coli 190317. The assay is described as above. It counts as cell-based. As to conditions: strain 190317; MIC of CAZ, compound fixed at 4 μg/mL. The method in brief:
as §1

Assay [8] deals with K. pneumoniae 6299. The description is as above. As to conditions: strain 6299; MIC of CAZ, compound fixed at 4 μg/mL. It counts as cell-based. The method in brief:
as §1

The subject of assay [9] is E. cloacae P99. The description is as above. As to conditions: strain P99; MIC of CAZ, compound fixed at 4 μg/mL. It counts as cell-based. The method in brief: as §1
The test system of assay [10] is P. aeruginosa CIP107051. The assay is described as above. It counts as cell-based. As to conditions: strain CIP107051; MIC of CAZ, compound fixed at 4 μg/mL. The method in brief:
as §1

The target in the next assay is CMY-37 (Citrobacter freundii, UniProt P05193). The conditions noted are these: read-out: IC50 β-lactamase CMY-37; class (C); nitrocefin 200 μM, 30-min pre-incubation, enzyme 0.2 nM.
The target of the next assay is AmpC (PAE) (Pseudomonas aeruginosa, UniProt P24735). The conditions noted are these: read-out: IC50 β-lactamase AmpC (PAE); class (C); nitrocefin 200 μM, 30-min pre-incubation, enzyme 0.4 nM.

The source of these data is patent US10722520B2, “Heterocyclic compounds and their use in preventing or treating bacterial infections” (MUTABILIS, priority 2016, dated 2020).

Turning to `CC(C)(O/N=C(\C(=O)N[C@@H]1C(=O)N2C(C(=O)[O-])=C(C[n+]3ccccc3)CS[C@H]12)c1csc(N)n1)C(=O)O` [CAZ, ceftazidime, reference compound], the MIC – broadly, the smallest concentration in the dilution series that meets the test's criterion for growth inhibition – in the assay on E. coli UFR39 is over 1020 µg/mL.

With `NCc1ccn(C2=CC3CN(C2)C(=O)N3OS(=O)(=O)[O-])n1.O=C(O)C(F)(F)F.[Na+]` (stereo not shown) [Example 49, sodium and 2,2,2-trifluoroacetate [3-[3-(ammoniummethyl)pyrazol-1-yl]-7-oxo-1,6-diazabicyclo[3.2.1]oct-3-en-6-yl]sulfate], the “MIC compounds of the invention alone” value with K. pneumoniae BAA-1898 [1] was over 32 µg/mL; with E. coli 190317 [2], 2 µg/mL; in the assay with K. pneumoniae 6299 [3] it was over 32 µg/mL; with E. cloacae P99 [4], 16 µg/mL; with P. aeruginosa CIP107051 [5], over 32 µg/mL. For the same compound, the concentration for half-maximal inhibition (IC50) (in general, the midpoint of a concentration-inhibition curve) on OXA-11 stood at 380 nM; on KPC-2 it was 180 nM; on OXA-48, 46 nM; on SHV-1, 8.5 nM; at AmpC (P99), 160 nM; at OXA-15, 510 nM. For the same compound, the 50% inhibitory concentration (IC50) was 670 nM on OXA-1; 2.6 nM at CTX-M-15; 1.2 nM at TEM-1; 150 nM at CMY-37; 1300 nM at AmpC (PAE). In addition, the “MIC combination of CAZ and compounds of the invention at 4 μg/mL” value with K. pneumoniae BAA-1898 [6] was at most 0.25 µg/mL; with E. coli 190317 [7] it was under 0.25 µg/mL; in the assay on K. pneumoniae 6299 [8], at most 0.25 µg/mL; in the assay with E. cloacae P99 [9], at most 0.25 µg/mL; in the assay on P. aeruginosa CIP107051 [10] it was 4 µg/mL.

As for `NC(=O)c1nn(C2=CC3CN(C2)C(=O)N3OS(=O)(=O)[O-])cc1F.[Na+]` (stereo not shown) [Example 26, sodium (7-oxo-3-(3-carboxamide-4-fluoro-pyrazol-1-yl)-1,6-diazabicyclo[3.2.1]oct-3-en-6-yl) sulfate], the “MIC compounds of the invention alone” value with K. pneumoniae BAA-1898 [1] is 16 µg/mL; with E. coli 190317 [2], 4 µg/mL; in the assay with K. pneumoniae 6299 [3], 16 µg/mL; in the assay with E. cloacae P99 [4] it was 16 µg/mL; with P. aeruginosa CIP107051 [5], over 32 µg/mL. Besides, the concentration for half-maximal inhibition (IC50) on OXA-11 was determined as 9.8 nM; on KPC-2 it was 3.2 nM; on OXA-48, 7.8 nM; on SHV-1, 1.2 nM; at AmpC (P99) it was 14 nM; at OXA-15 it was 13 nM. Also, the concentration for half-maximal inhibition (IC50) was found to be 33 nM at OXA-1; 0.72 nM at CTX-M-15; 0.23 nM at TEM-1; 36 nM at CMY-37; 130 nM on AmpC (PAE). Moreover, the “MIC combination of CAZ and compounds of the invention at 4 μg/mL” value in the assay with K. pneumoniae BAA-1898 [6] is 0.5 µg/mL; in the assay with E. coli 190317 [7], under 0.25 µg/mL; in the assay on K. pneumoniae 6299 [8] it was at most 0.25 µg/mL; with E. cloacae P99 [9] it was 1 µg/mL; with P. aeruginosa CIP107051 [10] it was 4 µg/mL.
